Assay results from ChEMBL document CHEMBL5260831, “Recent advance in oxazole-based medicinal chemistry” (Eur J Med Chem, 2018).
Converted amounts (≈) assume the structure as drawn.

Key:
[1] = test system: Mycobacterium tuberculosis; experiment: Antimycobacterial activity against Mycobacterium tuberculosis H37Rv ATCC27294 assessed as inhibition of bacterial growth by agar dilution assay; assay type: functional
Rattus norvegicus [2] = experiment: Anti-inflammatory activity against Carrageenan-induced paw edema in Wistar albino rat ulcerogenic activity relative to control; assay type: functional
A549 [3] = experiment: Antiproliferative activity in human A549 cells assessed as cell growth inhibition measured after 72 hrs by MTT assay; assay type: functional, cell-based; conditions: A549, 72 h
[4] = biological target: Protein kinase C beta type (Homo sapiens, UniProt P05771); experiment: Inhibition of PKCB (unknown origin)
Sequence of Protein kinase C beta type (P05771 whole entry): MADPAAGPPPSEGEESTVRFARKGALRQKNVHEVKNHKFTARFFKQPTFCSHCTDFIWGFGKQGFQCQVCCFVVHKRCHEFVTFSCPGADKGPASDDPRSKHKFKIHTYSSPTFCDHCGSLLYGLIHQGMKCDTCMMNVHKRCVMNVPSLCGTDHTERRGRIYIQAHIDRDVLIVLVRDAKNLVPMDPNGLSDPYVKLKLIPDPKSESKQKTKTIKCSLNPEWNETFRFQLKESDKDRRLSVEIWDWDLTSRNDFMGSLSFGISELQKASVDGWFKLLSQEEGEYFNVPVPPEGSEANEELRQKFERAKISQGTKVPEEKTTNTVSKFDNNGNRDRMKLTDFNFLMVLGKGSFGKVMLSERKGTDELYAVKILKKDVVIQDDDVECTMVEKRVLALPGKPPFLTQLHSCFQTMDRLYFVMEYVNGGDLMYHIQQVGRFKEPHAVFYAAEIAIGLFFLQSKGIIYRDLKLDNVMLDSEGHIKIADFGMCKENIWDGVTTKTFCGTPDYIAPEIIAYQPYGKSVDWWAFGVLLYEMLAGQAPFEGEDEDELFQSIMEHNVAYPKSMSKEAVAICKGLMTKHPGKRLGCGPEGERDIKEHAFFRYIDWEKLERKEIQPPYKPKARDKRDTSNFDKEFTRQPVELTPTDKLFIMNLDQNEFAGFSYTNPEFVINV

A549 [5] = experiment: Antiproliferative activity in human A549 cells assessed as cell growth inhibition measured after 72 hrs by SRB assay; assay type: functional, cell-based; conditions: A549, 72 h
A549 [6] = experiment: Antiproliferative activity in paclitaxel-resistant human A549 cells assessed as cell growth inhibition measured after 72 hrs by SRB assay; assay type: functional, cell-based; conditions: A549, 72 h
HCT-116 = experiment: Antiproliferative activity in human HCT-116 cells assessed as cell growth inhibition measured after 72 hrs by SRB assay; assay type: functional, cell-based; conditions: HCT-116, 72 h
SK-HEP1 = experiment: Antiproliferative activity in human SK-HEP1 cells assessed as cell growth inhibition measured after 72 hrs by SRB assay; assay type: functional, cell-based; conditions: SK-HEP1, 72 h
[7] = Antiproliferative activity in human SNU-601 cells assessed as cell growth inhibition measured after 72 hrs by SRB assay; assay type: functional, cell-based; conditions: SNU-601, 72 h
MDA-MB-231 = experiment: Antiproliferative activity in human MDA-MB-231 cells assessed as cell growth inhibition measured after 72 hrs by SRB assay; assay type: functional, cell-based; conditions: MDA-MB-231, 72 h
Alpha-glucosidase [8] = biological target: T1, Alpha-glucosidase (Saccharomyces cerevisiae S288c, UniProt P53341+P38158+P07265); experiment: Inhibition of yeast alpha-glucosidase using p-nitrophenyl-alpha-D-glucopyranoside as substrate; assay type: protein assay
Alpha-glucosidase [9] = biological target: T1, Alpha-glucosidase; experiment: Inhibition of yeast alpha-glucosidase using p-nitrophenyl-alpha-D-glucopyranoside as substrate by absorbance based analysis; assay type: protein assay
HepG2 [10] = experiment: Antiproliferative activity in human HepG2 cells assessed as cell growth inhibition measured after 72 hrs by MTT assay; assay type: functional, cell-based; conditions: HepG2, 72 h
[11] = test system: Mycolicibacterium smegmatis; experiment: Antibacterial activity against Mycobacterium smegmatis mc2155ATCC-700084 assessed as bacterial growth inhibition measured after 18 hrs by microplate reader based analysis; assay type: functional
MCF7 [12] = experiment: Antiproliferative activity in human MCF7 cells assessed as cell growth inhibition; assay type: functional, cell-based
HepG2 [13] = experiment: Antiproliferative activity in human HepG2 cells assessed as cell growth inhibition; assay type: functional, cell-based
Rattus norvegicus [14] = experiment: Anti-inflammatory activity against Carrageenan-induced paw edema in albino rat ulcerogenic activity at 20 mg/kg, po relative to control; assay type: functional
Staphylococcus aureus [15] = experiment: Antibiofilm activity against methicillin-sensitive Staphylococcus aureus ATCC 35556 assessed as inhibition of biofilm formation; assay type: functional
P388 = experiment: Antiproliferative activity gainst mouse P388 cells assessed as cell growth inhibition; assay type: functional, cell-based
A549 [16] = experiment: Antiproliferative activity in human A549 cells assessed as cell growth inhibition; assay type: functional, cell-based
HeLa = experiment: Antiproliferative activity in human HeLa cells assessed as cell growth inhibition; assay type: functional, cell-based
Staphylococcus aureus [17] = experiment: Antibacterial activity against Staphylococcus aureus assessed as bacterial growth inhibition by disc diffusion assay; assay type: functional
Escherichia coli = experiment: Antibacterial activity against Escherichia coli assessed as bacterial growth inhibition by microdilution assay; assay type: functional
A549 [18] = experiment: Antiproliferative activity in human A549 cells assessed as cell growth inhibition measured after 48 hrs by MTT assay; assay type: functional, cell-based; conditions: A549, 48 h
MCF7 [19] = experiment: Antiproliferative activity in human MCF7 cells assessed as cell growth inhibition measured after 48 hrs by MTT assay; assay type: functional, cell-based; conditions: MCF7, 48 h
Rattus norvegicus [20] = experiment: Anti-inflammatory activity against Carrageenan-induced paw edema in rat ulcerogenic activity relative to control; assay type: functional
[21] = biological target: Cannabinoid receptor 1 (Homo sapiens) (UniProt P21554); experiment: Binding affinity to CB1 receptor (unknown origin); conditions: filed as agonist
Sequence of Cannabinoid receptor 1 (Homo sapiens) (P21554 whole entry, the tested form may be a part): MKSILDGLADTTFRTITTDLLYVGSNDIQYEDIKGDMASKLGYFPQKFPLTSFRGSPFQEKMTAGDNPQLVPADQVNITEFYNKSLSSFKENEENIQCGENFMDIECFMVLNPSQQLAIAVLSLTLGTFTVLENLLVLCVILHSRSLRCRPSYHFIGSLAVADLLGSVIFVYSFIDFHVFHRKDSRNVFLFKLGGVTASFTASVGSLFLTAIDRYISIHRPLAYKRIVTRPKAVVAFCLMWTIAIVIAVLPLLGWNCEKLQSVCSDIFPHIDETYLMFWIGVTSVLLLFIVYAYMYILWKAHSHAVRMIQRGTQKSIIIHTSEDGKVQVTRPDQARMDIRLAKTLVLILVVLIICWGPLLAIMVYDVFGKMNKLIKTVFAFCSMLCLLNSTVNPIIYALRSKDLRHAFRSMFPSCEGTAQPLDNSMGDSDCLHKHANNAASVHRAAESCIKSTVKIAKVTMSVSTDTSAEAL

Pseudomonas aeruginosa = experiment: Antibacterial activity against Pseudomonas aeruginosa MTCC 741 assessed as microbial growth inhibition measured after 24 hrs by paper disc diffusion technique; assay type: functional
Bacillus cereus = experiment: Antibacterial activity against Bacillus cereus MTCC 430 assessed as microbial growth inhibition measured after 24 hrs by paper disc diffusion technique; assay type: functional
Leishmania major = experiment: Leishmanicidal activity against Leishmania major JISH118 promastigote infected in human THP-1 macrophage cells assessed as reduction in […]; assay type: functional, organism-based; conditions: JISH118, THP-1

SMILES: Cc1nnc(-c2cc(-c3ccc(Cl)cc3)n(-c3ccc(NC(=O)c4ccccc4)cc3)n2)o1
- MIC [1]: 3.13 µg/mL (≈ 6.87 µM)

SMILES: Clc1ccccc1-c1nnc(Cn2c(CN3CCOCC3)nc3ccccc32)o1
- inhibition (INH) (Rattus norvegicus [2]): 74.17%

SMILES: COc1ccc(-c2cc(-c3nnc(C)o3)nn2-c2ccc(NC(=O)c3ccc(F)cc3)cc2)cc1
- MIC [1]: > 50 µg/mL

SMILES: CO[C@@H]1[C@H](N(C)c2ncc(-c3c[nH]c4ccccc34)o2)C[C@H]2C[C@]1(C)n1c3ccccc3c3c4c(c5c6ccccc6n2c5c31)C(=O)NC4
- IC50 (A549 [3]): 0.45 µM
- IC50 [4]: 0.5 µM

SMILES: COC(CC1OC(=O)CC(O)C/C=C/C(=O)C(C)C(OC)c2coc(n2)-c2coc(n2)-c2coc(n2)/C=C\CCC1C)C(C)CCC(=O)C(C)C(C/C=C/N(C)C=O)OC (stereo unspecified)
- IC50 (A549 [5]): 0.024 µM
- IC50 (A549 [6]): 0.022 µM
- IC50 (HCT-116): 0.073 µM
- IC50 (SK-HEP1): 0.08 µM
- IC50 [7]: 0.107 µM
- IC50 (MDA-MB-231): 0.04 µM

SMILES: O=[N+]([O-])c1ccc2cc(-c3nnc(-c4ccccc4F)o3)oc2c1
- IC50 (Alpha-glucosidase [8]): 2 µM
- IC50 (Alpha-glucosidase [9]): 12.75 µM

SMILES: Brc1ccccc1-c1nc(-c2ccccc2)co1
- IC50 (HepG2 [10]): 16.9 µM

SMILES: C/C=C(C)/C=C(\C)[C@@H](O)[C@H](C)[C@@H](O)[C@H](O)[C@@H]1C/C=C\C=C\[C@@H](O)C[C@H](O)[C@@H](C)c2nc(cs2)/C=C(\CCCCCC)C(=O)O1
- MIC [11]: 16 µg/mL (≈ 25.3 µM)

SMILES: CC(=O)Oc1ccccc1C1OC(c2ccncc2)=NN1C(C)=O (stereo unspecified)
- IC50 (MCF7 [12]): 50 µM
- IC50 (HepG2 [13]): 50 µM

SMILES: CC(=O)Oc1ccc(-c2nc(-c3ccccc3)co2)cc1
- IC50 (HepG2 [10]): 16.6 µM

SMILES: O=C(CCN1CCN(c2ccc([N+](=O)[O-])cc2)CC1)Nc1ccc2oc(Cc3ccc(Cl)cc3)nc2c1
- inhibition in vivo at 20 mg/kg (Rattus norvegicus [14]): 81.7%

SMILES: COc1ccc(-c2nnc(-c3cc(Br)c(Br)n3C)o2)cc1
- MBIC (Staphylococcus aureus [15]): 0.78 µg/mL

SMILES: Cc1nnc(-c2cc(-c3ccc(Cl)cc3)n(-c3ccc(NC(=O)c4ccccc4Cl)cc3)n2)o1
- MIC [1]: 1.56 µg/mL (≈ 3.18 µM)

SMILES: O=[N+]([O-])c1ccc2cc(-c3nnc(-c4ccc(O)cc4O)o3)oc2c1
- IC50 (Alpha-glucosidase [8]): 2 µM
- IC50 (Alpha-glucosidase [9]): 12.75 µM

SMILES: CCC[C@@H]1NC(=O)C2C[C@H](C)CN2C(=O)[C@@H](NC=O)CNC(=O)[C@H](CSSC[C@@H]2NC(=O)c3coc(n3)[C@H](C)NC(=O)C(=O)[C@H](CCC)NC(=O)C3C[C@H](C)CN3C(=O)[C@@H](NC=O)CNC2=O)NC(=O)c2coc(n2)[C@H](C)NC(=O)C1=O (stereo partly specified)
- IC50 (P388): 0.83 µM

SMILES: Cc1ncc(-c2cnc3ccccc3c2)o1
- IC50 (MCF7 [12]): 4.6 µM
- IC50 (A549 [16]): 4.6 µM
- IC50 (HeLa): 4.6 µM

SMILES: Cn1c(-c2nnc(-c3ccc(Cl)cc3Cl)o2)cc(Br)c1Br
- MBIC (Staphylococcus aureus [15]): 0.39 µg/mL

SMILES: COc1ccc(-c2nnc(SCCSc3nnc(-c4c[nH]c5ccccc45)n3N)o2)cc1
- MIC (Staphylococcus aureus [17]): 2 µg/mL (≈ 4.3 µM)
- MIC (Escherichia coli): 2 µg/mL

SMILES: Cn1c(-c2nnc(-c3ccc(Cl)cc3)o2)cc(Br)c1Br
- MBIC (Staphylococcus aureus [15]): 0.78 µg/mL

SMILES: CO[C@@H]1[C@H](N(C)c2ncc(-c3ccccc3)o2)C[C@H]2C[C@]1(C)n1c3ccccc3c3c4c(c5c6ccccc6n2c5c31)C(=O)NC4
- IC50 (A549 [3]): 0.75 µM
- IC50 [4]: 0.5 µM

SMILES: Nc1ccc(-c2nnc(SCCSc3nnc(-c4c[nH]c5ccccc45)n3N)o2)cc1
- MIC (Staphylococcus aureus [17]): 2 µg/mL (≈ 4.44 µM)
- MIC (Escherichia coli): 2 µg/mL

SMILES: CC1=NN(c2ccccc2)C(=O)/C1=N/Nc1cccc(-c2nc3ccccc3o2)c1
- IC50 (A549 [18]): 15.5 µM
- IC50 (MCF7 [19]): 17 µM

SMILES: C/C=C(C)/C=C(\C)[C@@H](O)[C@H](C)[C@@H](O)[C@@H]1OC(=O)/C(CCCCCC)=C/c2coc(n2)[C@H](C)[C@@H](O)C[C@H](O)/C=C/C=C\C[C@@H]1O
- MIC [11]: 64 µg/mL (≈ 104 µM)

SMILES: COc1cc(-c2nnc(SCC(=O)Nc3ccc(/C(C)=N/O)cc3)o2)cc(OC)c1OC
- inhibition (INH) (Rattus norvegicus [20]): 96.67%

SMILES: c1ccc(Cc2noc(-c3cn(CCN4CCCC4)c4ccccc34)n2)cc1
- pKb [21]: 7.2

SMILES: O=[N+]([O-])c1ccccc1-c1nc(-c2ccccc2)co1
- IC50 (HepG2 [10]): 56.5 µM

SMILES: Cn1c(-c2nnc(-c3cc(Br)c(Br)[nH]3)o2)cc(Br)c1Br
- MBIC (Staphylococcus aureus [15]): 0.78 µg/mL

SMILES: O=c1cc(Nc2ccc(-c3cc(-c4ccc(Cl)cc4Cl)on3)cc2)c2ccccc2o1
- MIC (Pseudomonas aeruginosa): 12.5 µg/mL (≈ 27.8 µM)
- MIC (Bacillus cereus): 12.5 µg/mL (≈ 27.8 µM)

SMILES: COc1ccc(-c2cc(-c3nnc(C)o3)nn2-c2ccc(NC(=O)c3ccccc3)cc2)cc1
- MIC [1]: > 50 µg/mL

SMILES: C/C=C(C)\C=C(/C)[C@@H](O)[C@H](C)[C@@H](O)[C@@H]1OC(=O)/C(CCCCCC)=C/c2coc(n2)[C@H](C)[C@@H](O)C[C@H](O)/C=C/C=C\C[C@@H]1O
- MIC [11]: 64 µg/mL (≈ 104 µM)

SMILES: CN[C@H](CC(C)C)C(=O)N[C@H]1C(=O)N[C@@H](CC(N)=O)C(=O)N[C@H]2C(=O)N[C@H]3C(=O)N[C@H](C(=O)N[C@H](C(=O)O)c4cc(O)cc(O)c4-c4cc3ccc4O)[C@H](O)c3ccc(c(Cl)c3)Oc3cc2cc(c3O[C@@H]2O[C@H](CO)[C@@H](O)[C@H](O)[C@H]2O[C@H]2C[C@](C)(N)[C@H](O)[C@H](C)O2)Oc2ccc(cc2Cl)[C@H]1O [VANCOMYCIN]
- MBIC (Staphylococcus aureus [15]): 3.125 µg/mL

SMILES: Cc1ncc(-c2cccnc2)o1
- IC50 (MCF7 [12]): 4.6 µM
- IC50 (A549 [16]): 4.6 µM
- IC50 (HeLa): 4.6 µM

SMILES: O=[N+]([O-])c1ccc2cc(-c3nnc(-c4cccc(O)c4O)o3)oc2c1
- IC50 (Alpha-glucosidase [8]): 2 µM
- IC50 (Alpha-glucosidase [9]): 12.75 µM

SMILES: Cc1ncc(-c2ccc3ccccc3c2)o1
- IC50 (MCF7 [12]): 4.6 µM
- IC50 (A549 [16]): 4.6 µM
- IC50 (HeLa): 4.6 µM

SMILES: O=C(NNC(=S)c1ccc(C(F)(F)F)cc1)c1ccc(-c2nnc(-c3ccc4ncccc4c3)o2)cc1
- IC50 (Leishmania major): 0.1 µM
